Active and inactive are the calls of the source. The rule behind the calls is not given here.

In assay [1] the test system is H9c2. The experiment in a line: Inhibition of H2O2-induced apoptosis in rat H9c2 cells after 24 hrs by AO/EB staining based fluorescence microscopic analysis. It is filed as functional, cell-based.
Assay [2] has as its target T1, Estrogen receptor (Rattus norvegicus) (UniProt P06211+Q62986). The experiment in a line: Activation of ER-alpha/beta in rat H9c2 cells assessed as phosphorylated Akt level at 5,10 and 20 uM after 24 hrs by western blot analysis in presence of ER inhibitor ICI182780. The format is cell-based. A general note: In western blotting, separated proteins are transferred to a membrane and probed.

In assay [3] the test system is H9c2. Nature of the assay: Inhibition of H2O2-induced apoptosis in rat H9c2 cells at 5,10 and 20 uM after 24 hrs by AO/EB staining based fluorescence microscopic analysis in presence of ER inhibitor ICI182780. It is filed as functional, cell-based.
Assay [4] has as its system H9c2. The experiment in a line: Inhibition of H2O2-induced loss of cell viability in rat H9c2 cells at 5,10 and 20 uM after 24 hrs by MTT assay. The format is functional, cell-based.
Assay [5] has as its target T1, Estrogen receptor (Rattus norvegicus). Nature of the assay: Activation of ER-alpha/beta in rat H9c2 cells assessed as increase in phosphorylated Akt level after 24 hrs by western blot analysis. It is filed as cell-based.
In assay [6] the test system is H9c2. Nature of the assay: Upregulation of ER-alpha expression in rat H9c2 cells after 24 hrs by western blot analysis. It is filed as functional, cell-based.
Assay [7] has as its system H9c2. The experiment in a line: Inhibition of H2O2-induced loss of cell viability in rat H9c2 cells at 5,10 and 20 uM after 24 hrs by MTT assay in presence of ER inhibitor ICI182780. The format is functional, cell-based.
The test system of assay [8] is H9c2. The experiment in a line: Upregulation of ER-beta expression in rat H9c2 cells after 24 hrs by western blot analysis. The format is functional, cell-based.

As to `COc1ccc(-c2coc3cc(O)ccc3c2=O)cc1O`, the inhibition result with H9c2 [1] is “Dose-dependent effect”. Further, in assay [2], the result was inactive. In addition, the inhibition result in the assay with H9c2 [3] and with H9c2 [7] was “inactive” throughout. Besides, the inhibition result with H9c2 [4] is “Active”. Also, in assay [5], the outcome was Active. Further, the Activity result with H9c2 [6] and with H9c2 [8] was “Dose-dependent effect” each time.

Source of the values: ChEMBL document CHEMBL3739341, “Calycosin inhibits oxidative stress-induced cardiomyocyte apoptosis via activating estrogen receptor-α/β” (Bioorg Med Chem Lett, 2016).
